Experiments:
[1] = system: Eimeria tenella; test: Anticoccidial activity against Eimeria tenella in chickens assessed as reduction of oocysts at 8 ppm measured after 8 days by ExMAC assay relative to untreated control; format: functional; parameters: scale not given: the % may be the effect or the level left
[2] = system: Eimeria mitis; test: Anticoccidial activity against Eimeria mitis in chickens assessed as reduction of oocysts at 8 ppm measured after 8 days by ExMAC assay relative to untreated control; format: functional; parameters: scale not given: the % may be the effect or the level left
[3] = system: Eimeria acervulina; test: Anticoccidial activity against Eimeria acervulina in chickens assessed as reduction of oocysts at 8 ppm measured after 8 days by ExMAC assay relative to untreated control; format: functional; parameters: scale not given: the % may be the effect or the level left
[4] = target: cGMP-dependent protein kinase (Eimeria tenella, UniProt Q8MMZ8); test: Inhibition of Eimeria tenella cGMP-dependent protein kinase
[5] = system: Eimeria maxima; test: Anticoccidial activity against Eimeria maxima in chickens assessed as reduction of oocysts at 6.25 ppm measured after 8 days by ExMAC assay relative to untreated control; format: functional; parameters: scale not given: the % may be the effect or the level left
[6] = system: Eimeria acervulina; test: Anticoccidial activity against Eimeria acervulina in chickens assessed as reduction of oocysts at 6.25 ppm measured after 8 days by ExMAC assay relative to untreated control; format: functional; parameters: scale not given: the % may be the effect or the level left
[7] = system: Eimeria mitis; test: Anticoccidial activity against Eimeria mitis in chickens assessed as reduction of oocysts at 6.25 ppm measured after 8 days by ExMAC assay relative to untreated control; format: functional; parameters: scale not given: the % may be the effect or the level left
[8] = system: Eimeria tenella; test: Anticoccidial activity against Eimeria tenella in chickens assessed as reduction of oocysts at 6.25 ppm measured after 8 days by ExMAC assay relative to untreated control; format: functional; parameters: scale not given: the % may be the effect or the level left
[9] = system: Eimeria maxima; test: Anticoccidial activity against Eimeria maxima in chickens assessed as reduction of oocysts at 8 ppm measured after 8 days by ExMAC assay relative to untreated control; format: functional; parameters: scale not given: the % may be the effect or the level left
[10] = system: Eimeria tenella; test: Anticoccidial activity against Eimeria tenella in chickens assessed as reduction of oocysts at 12.5 ppm measured after 8 days by ExMAC assay relative to untreated control; format: functional; parameters: scale not given: the % may be the effect or the level left
[11] = system: Eimeria mitis; test: Anticoccidial activity against Eimeria mitis in chickens assessed as reduction of oocysts at 25 ppm measured after 8 days by ExMAC assay relative to untreated control; format: functional; parameters: scale not given: the % may be the effect or the level left
[12] = system: Eimeria acervulina; test: Anticoccidial activity against Eimeria acervulina in chickens assessed as reduction of oocysts at 25 ppm measured after 8 days by ExMAC assay relative to untreated control; format: functional; parameters: scale not given: the % may be the effect or the level left
[13] = system: Eimeria mitis; test: Anticoccidial activity against Eimeria mitis in chickens assessed as reduction of oocysts at 12.5 ppm measured after 8 days by ExMAC assay relative to untreated control; format: functional; parameters: scale not given: the % may be the effect or the level left
[14] = system: Eimeria acervulina; test: Anticoccidial activity against Eimeria acervulina in chickens assessed as reduction of oocysts at 12.5 ppm measured after 8 days by ExMAC assay relative to untreated control; format: functional; parameters: scale not given: the % may be the effect or the level left
[15] = system: Eimeria maxima; test: Anticoccidial activity against Eimeria maxima in chickens assessed as reduction of oocysts at 25 ppm measured after 8 days by ExMAC assay relative to untreated control; format: functional; parameters: scale not given: the % may be the effect or the level left
[16] = system: Eimeria tenella; test: Anticoccidial activity against Eimeria tenella in chickens assessed as reduction of oocysts at 25 ppm measured after 8 days by ExMAC assay relative to untreated control; format: functional; parameters: scale not given: the % may be the effect or the level left
[17] = system: Eimeria maxima; test: Anticoccidial activity against Eimeria maxima in chickens assessed as reduction of oocysts at 12.5 ppm measured after 8 days by ExMAC assay relative to untreated control; format: functional; parameters: scale not given: the % may be the effect or the level left
[18] = system: Eimeria maxima; test: Anticoccidial activity against Eimeria maxima in chickens assessed as reduction of oocysts at 4 ppm measured after 8 days by ExMAC assay relative to untreated control; format: functional; parameters: scale not given: the % may be the effect or the level left
[19] = system: Eimeria maxima; test: Anticoccidial activity against Eimeria maxima in chickens assessed as reduction of oocysts at 2 ppm measured after 8 days by ExMAC assay relative to untreated control; format: functional; parameters: scale not given: the % may be the effect or the level left
[20] = system: Eimeria tenella; test: Anticoccidial activity against Eimeria tenella in chickens assessed as reduction of oocysts at 2 ppm measured after 8 days by ExMAC assay relative to untreated control; format: functional; parameters: scale not given: the % may be the effect or the level left
[21] = system: Eimeria maxima; test: Anticoccidial activity against Eimeria maxima in chickens assessed as reduction of oocysts at 1 ppm measured after 8 days by ExMAC assay relative to untreated control; format: functional; parameters: scale not given: the % may be the effect or the level left
[22] = system: Eimeria acervulina; test: Anticoccidial activity against Eimeria acervulina in chickens assessed as reduction of oocysts at 1 ppm measured after 8 days by ExMAC assay relative to untreated control; format: functional; parameters: scale not given: the % may be the effect or the level left
[23] = system: Eimeria mitis; test: Anticoccidial activity against Eimeria mitis in chickens assessed as reduction of oocysts at 2 ppm measured after 8 days by ExMAC assay relative to untreated control; format: functional; parameters: scale not given: the % may be the effect or the level left
[24] = system: Eimeria mitis; test: Anticoccidial activity against Eimeria mitis in chickens assessed as reduction of oocysts at 1 ppm measured after 8 days by ExMAC assay relative to untreated control; format: functional; parameters: scale not given: the % may be the effect or the level left
[25] = system: Eimeria mitis; test: Anticoccidial activity against Eimeria mitis in chickens assessed as reduction of oocysts at 4 ppm measured after 8 days by ExMAC assay relative to untreated control; format: functional; parameters: scale not given: the % may be the effect or the level left
[26] = system: Eimeria acervulina; test: Anticoccidial activity against Eimeria acervulina in chickens assessed as reduction of oocysts at 2 ppm measured after 8 days by ExMAC assay relative to untreated control; format: functional; parameters: scale not given: the % may be the effect or the level left

Chain of cGMP-dependent protein kinase (Q8MMZ8 whole entry): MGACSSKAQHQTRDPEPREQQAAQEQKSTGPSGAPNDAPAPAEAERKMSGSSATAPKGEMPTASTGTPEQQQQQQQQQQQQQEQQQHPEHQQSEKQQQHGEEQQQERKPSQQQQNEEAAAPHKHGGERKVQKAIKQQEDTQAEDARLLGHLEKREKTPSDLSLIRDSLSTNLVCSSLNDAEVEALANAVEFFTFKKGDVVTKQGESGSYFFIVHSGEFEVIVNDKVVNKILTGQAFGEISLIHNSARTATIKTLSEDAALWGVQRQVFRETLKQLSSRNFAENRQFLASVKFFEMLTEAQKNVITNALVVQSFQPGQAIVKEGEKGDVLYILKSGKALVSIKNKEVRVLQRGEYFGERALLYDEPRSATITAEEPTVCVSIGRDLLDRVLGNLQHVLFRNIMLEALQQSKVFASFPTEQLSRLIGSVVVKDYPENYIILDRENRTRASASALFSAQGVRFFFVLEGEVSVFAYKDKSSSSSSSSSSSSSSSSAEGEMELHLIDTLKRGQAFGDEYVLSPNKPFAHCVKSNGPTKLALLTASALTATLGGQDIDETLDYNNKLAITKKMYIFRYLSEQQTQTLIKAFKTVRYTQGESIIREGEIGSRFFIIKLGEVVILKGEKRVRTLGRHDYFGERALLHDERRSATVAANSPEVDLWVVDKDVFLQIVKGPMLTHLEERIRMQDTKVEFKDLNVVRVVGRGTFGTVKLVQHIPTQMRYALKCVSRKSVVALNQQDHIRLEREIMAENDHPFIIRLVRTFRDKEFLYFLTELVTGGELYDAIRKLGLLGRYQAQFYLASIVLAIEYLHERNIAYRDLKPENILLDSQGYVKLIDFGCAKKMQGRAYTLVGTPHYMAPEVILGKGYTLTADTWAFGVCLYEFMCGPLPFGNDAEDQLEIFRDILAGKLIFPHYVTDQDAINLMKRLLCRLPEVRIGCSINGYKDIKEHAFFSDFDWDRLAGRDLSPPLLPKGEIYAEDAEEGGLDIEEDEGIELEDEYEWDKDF

| SMILES | IC50 [4] [nM] | Activity [5] [%] | Activity [6] [%] | Activity [7] [%] | Activity [8] [%] | Activity [10] [%] | Activity [11] [%] | Activity [12] [%] | Activity [13] [%] | Activity [14] [%] | Activity [15] [%] | Activity [16] [%] | Activity [17] [%] | also measured |
| --- | --- | --- | --- | --- | --- | --- | --- | --- | --- | --- | --- | --- | --- | --- |
| CN(C)C(C)(C)c1ccn2c(-c3ccnc(N)n3)c(-c3ccc(F)cc3)nc2c1 | 0.11 | 80 | 100 | 80 | 100 | – | – | – | – | – | – | – | – | Activity [1]: 100%; Activity [2]: <50%; Activity [3]: 100%; Activity [9]: 100% |
| Nc1nccc(-c2c(-c3ccc(F)cc3)nc3cc(C4CCN(Cc5ccccc5)CC4)ccn23)n1 | 0.11 | 80 | <50 | <50 | <50 | 80 | <50 | <50 | <50 | 80 | 100 | 80 | 80 | – |
| CN(C)CCc1ccn2c(-c3ccnc(N)n3)c(-c3ccc(F)cc3)nc2c1 | 0.46 | 50 | 80 | <50 | 100 | 100 | 100 | 100 | 80 | 100 | 100 | 100 | 100 | – |
| Nc1nccc(-c2c(-c3ccc(F)cc3)nc3cc(C4CCN(CCCO)CC4)ccn23)n1 | 0.065 | <50 | 50 | <50 | <50 | 100 | <50 | 80 | <50 | 50 | <50 | 100 | <50 | – |
| CN(C)c1ccn2c(-c3ccnc(N)n3)c(-c3ccc(F)cc3)nc2c1 | 3 | <50 | <50 | <50 | <50 | 50 | <50 | 80 | <50 | <50 | 80 | 80 | 80 | – |
| Nc1nccc(-c2c(-c3ccc(F)cc3)nc3cc(C4CCN(CC5CC5)CC4)ccn23)n1 | 0.095 | 80 | 80 | 80 | 80 | 100 | 80 | 100 | 80 | 80 | 80 | 100 | 80 | – |
| CCN(CC)Cc1ccn2c(-c3ccnc(N)n3)c(-c3ccc(F)cc3)nc2c1 | 0.17 | <50 | <50 | 50 | <50 | 80 | 80 | 50 | <50 | 50 | 80 | 80 | 80 | – |
| CN(C)CC(F)c1ccn2c(-c3ccnc(N)n3)c(-c3ccc(F)cc3)nc2c1 (stereo not given) | 0.59 | 100 | <50 | <50 | 80 | 80 | 100 | 100 | 50 | 80 | 100 | 100 | 100 | – |
| CC(c1ccn2c(-c3ccnc(N)n3)c(-c3ccc(F)cc3)nc2c1)N(C)C (single isomer, unassigned; enantiomer A) | 0.28 | – | – | – | – | – | – | – | – | – | – | – | – | Activity [18]: <50%; Activity [19]: 50%; Activity [20]: <50%; Activity [21]: 50%; Activity [22]: <50%; Activity [23]: <50%; Activity [24]: 50%; Activity [25]: <50%; Activity [26]: <50% |

From ChEMBL document CHEMBL1141668, “Synthesis and biological activity of imidazopyridine anticoccidial agents: Part II” (Eur J Med Chem, 2008)
